From PMC3102601 (2011)

Molecular target: phosphonoacetate hydrolase (PAc hydrolase) (Pseudomonas fluorescens, UniProt Q51782)
Assay type: biochemical

Sequence of phosphonoacetate hydrolase (PAc hydrolase) (Q51782 2-407): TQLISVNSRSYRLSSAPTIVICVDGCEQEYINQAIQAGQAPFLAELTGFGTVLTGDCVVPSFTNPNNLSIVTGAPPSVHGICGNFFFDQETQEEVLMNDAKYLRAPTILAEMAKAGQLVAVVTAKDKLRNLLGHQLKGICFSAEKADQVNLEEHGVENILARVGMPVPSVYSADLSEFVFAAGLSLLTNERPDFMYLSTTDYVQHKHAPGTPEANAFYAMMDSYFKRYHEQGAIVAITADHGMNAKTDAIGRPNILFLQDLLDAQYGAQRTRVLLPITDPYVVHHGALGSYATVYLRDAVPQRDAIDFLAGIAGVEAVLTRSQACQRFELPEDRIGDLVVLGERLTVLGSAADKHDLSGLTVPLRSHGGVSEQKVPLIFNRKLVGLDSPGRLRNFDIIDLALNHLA

**Q.** `O=C(O)C(=O)CP(=O)(O)O` [phosphonopyruvate] was tested. Which Ki did it give?
**A.** 1.2 ± 0.8 mM
